Test results published in patent US8598183B2, “Solid state forms of a potent HCV inhibitor” (Boehringer Ingelheim International GmbH, priority 2010, dated 2013).

Key:
[1] = Solubility of Compound (1) in physiological pH range; thermodynamic solubility; format: physicochemical; conditions: aqueous buffer, thermodynamic from solid; physiological pH range of 2-6.8
Experimental: Doses of Compound (1) up to 400 to 600 mg per dose may be required to be delivered to obtain exposures necessary for sufficient efficacy in vivo. Based on thermodynamic solubility of Compound (1), solubility of 0.005-0.01 mg/ml is estimated for Compound (1) sodium salt.

[2] = target: HCV NS5B RNA-dependent RNA polymerase (Hepatitis C virus genotype 1a, UniProt P27958); conditions: cited from earlier work
Chain of HCV NS5B RNA-dependent RNA polymerase (P27958 2421-3011): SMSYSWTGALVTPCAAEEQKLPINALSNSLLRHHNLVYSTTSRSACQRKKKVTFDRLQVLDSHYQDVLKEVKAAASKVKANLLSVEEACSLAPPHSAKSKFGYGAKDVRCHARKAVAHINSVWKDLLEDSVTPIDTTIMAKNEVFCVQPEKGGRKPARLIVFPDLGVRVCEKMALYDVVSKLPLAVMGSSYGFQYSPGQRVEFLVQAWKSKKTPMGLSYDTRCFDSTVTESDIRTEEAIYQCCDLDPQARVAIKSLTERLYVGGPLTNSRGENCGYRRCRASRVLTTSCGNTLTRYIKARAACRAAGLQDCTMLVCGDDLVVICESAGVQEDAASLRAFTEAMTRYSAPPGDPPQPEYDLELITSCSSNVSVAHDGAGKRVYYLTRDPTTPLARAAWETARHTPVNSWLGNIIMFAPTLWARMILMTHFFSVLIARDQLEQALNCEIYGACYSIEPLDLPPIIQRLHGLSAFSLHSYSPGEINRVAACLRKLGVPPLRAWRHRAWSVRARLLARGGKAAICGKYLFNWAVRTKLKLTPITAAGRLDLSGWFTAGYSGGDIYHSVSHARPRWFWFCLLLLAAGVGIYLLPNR

[3] = Powder dissolution testing in pH 6.8 buffer, USP Type II Paddle apparatus; format: physicochemical; conditions: 60 minutes
[4] = Physical and chemical stability under accelerated storage conditions; format: physicochemical
Experimental: The glass transition temperature of the amorphous form of Compound (1) sodium salt is >200° C., which is quite atypical for pharmaceutical active materials and can be considered an unexpected finding.

| Compound | solubility [1] | inhibition of HCV NS5B RNA-dependent RNA polymerase [2] | % dissolved (kinetic dissolution) [3] | physical and chemical stability [4] |
| --- | --- | --- | --- | --- |
| Cn1c(C2(NC(=O)c3ccc4c(C5CCCC5)c(-c5ncc(Br)cn5)n(C)c4c3)CCC2)nc2ccc(/C=C/C(=O)O)cc21 [Compound (1), (E)-3-[2-(1-{[2-(5-Bromo-pyrimidin-2-yl)-3-cyclopentyl-1-methyl-1H-indole-6-carbonyl]-amino}-cyclobutyl)-3-methyl-3H-benzimidazol-5-yl]-acrylic acid] | < 0.2 µg/mL | selective and potent inhibitor |  |  |
| Cn1c(C2(NC(=O)c3ccc4c(C5CCCC5)c(-c5ncc(Br)cn5)n(C)c4c3)CCC2)nc2ccc(/C=C/C(=O)[O-])cc21.[Na+] [amorphous Compound (1) sodium salt] |  |  | about 35% | acceptable physical and chemical stability |
